Experimental data taken from US20090124631A1, “Combination Therapy” (priority 2007, published 2009).

Biological target: T1, HDAC6 (Homo sapiens, UniProt Q9UBN7)
T1 construct: HDAC6 and 8 were cloned as full length N-terminally His-tagged protein; His tag (N); made in house; host or cells: Sf-9 insect cells (baculovirus)
T1 sequence (Q9UBN7 1-1215): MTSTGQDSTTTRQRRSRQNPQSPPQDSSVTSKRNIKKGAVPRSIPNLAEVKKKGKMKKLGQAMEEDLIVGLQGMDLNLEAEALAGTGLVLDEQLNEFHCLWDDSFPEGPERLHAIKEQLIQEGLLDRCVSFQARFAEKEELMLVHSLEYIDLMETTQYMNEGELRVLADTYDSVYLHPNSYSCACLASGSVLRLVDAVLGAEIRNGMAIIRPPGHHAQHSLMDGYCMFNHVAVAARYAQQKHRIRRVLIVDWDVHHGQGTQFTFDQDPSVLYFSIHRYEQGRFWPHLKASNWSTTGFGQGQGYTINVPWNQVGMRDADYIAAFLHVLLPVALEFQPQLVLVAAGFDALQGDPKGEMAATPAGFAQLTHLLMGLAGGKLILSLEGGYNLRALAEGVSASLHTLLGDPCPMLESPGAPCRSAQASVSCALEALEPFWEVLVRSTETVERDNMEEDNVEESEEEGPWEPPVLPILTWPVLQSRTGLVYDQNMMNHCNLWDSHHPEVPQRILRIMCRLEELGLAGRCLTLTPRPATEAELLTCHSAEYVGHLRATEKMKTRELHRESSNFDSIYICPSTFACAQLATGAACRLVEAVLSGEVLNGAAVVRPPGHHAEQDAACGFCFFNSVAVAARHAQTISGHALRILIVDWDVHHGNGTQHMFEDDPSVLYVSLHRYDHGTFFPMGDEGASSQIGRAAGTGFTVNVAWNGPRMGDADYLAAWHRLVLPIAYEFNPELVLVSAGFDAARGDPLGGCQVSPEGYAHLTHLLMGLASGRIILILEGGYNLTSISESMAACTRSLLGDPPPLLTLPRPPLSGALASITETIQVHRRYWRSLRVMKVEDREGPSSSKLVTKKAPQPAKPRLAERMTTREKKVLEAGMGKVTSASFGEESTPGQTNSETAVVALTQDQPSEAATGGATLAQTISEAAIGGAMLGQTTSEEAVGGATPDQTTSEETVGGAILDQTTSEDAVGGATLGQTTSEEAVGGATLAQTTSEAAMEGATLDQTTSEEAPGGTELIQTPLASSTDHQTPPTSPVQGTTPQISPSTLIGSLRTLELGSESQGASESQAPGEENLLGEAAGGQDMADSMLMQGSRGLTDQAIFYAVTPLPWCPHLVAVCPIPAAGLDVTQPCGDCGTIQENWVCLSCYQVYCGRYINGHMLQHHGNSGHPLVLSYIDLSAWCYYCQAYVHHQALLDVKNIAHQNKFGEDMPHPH
Test: Fluorescence-based HDAC enzyme assay, recombinant HDAC6
Format: biochemical
Conditions: recombinant human HDAC enzyme in vitro; read-out: IC50 (μM) HD6
Source text: cDNAs of human HDAC1-8 and 11 were generated by RT-PCR reactions using primers complementary to the 5′ and 3′ coding sequence of human HDAC gene sequences in GenBank. cDNAs corresponding to the full length human HDAC1, 2, 3 and 11 were cloned into pBlueBac4.5 vector (Invitrogen). The constructs were used to generate recombinant baculoviruses using the Bac-N-Blue™ DNA according to the manufacturer's instructions (Invitrogen). The recombinant HDAC1, 2, 3, 11 proteins produced harbor a FLAG tag at their C-termini. cDNAs encoding truncated versions of HDAC4, 5 and 7 encompassing their deacetylase domains were cloned into pDEST10 as an N-terminal hexahistidine fusion protein and recombinant baculoviruses were generated using the Bac-to-Bac™ Baculovirus expression system (Invitrogen). HDAC6 and 8 were cloned as full length N-terminally His-tagged protein. All HDAC proteins were expressed in insect Sf-9 cells (Spodoptera frugiperdai) upon infection with recombinant baculovirus. HDAC1 enzyme was purified from the Q-sepharose FF column (Amersham Pharmacia Biotech, Baie d'Urfe QC, Canada) followed by an anti-FLAG immunoaffinity column (Sigma). HDAC2, 3 and 11 were purified using Flag-antibody immunoaffinity purification. HDAC4, 5, 6, 7 and 8 were purified using either Ni-NTA resin (QIAGEN Mississauga ON, Canada) or His-Select resin (Sigma) with step washes and elution with different concentrations of imidazole in Buffer containing 25 mM Tris (or NaPO4) pH 8.0, 10% glycerol and 150 mM or 500 mM NaCl.
Recombinant HDAC enzymes were incubated with diluted compounds in assay buffer (25 mM Hepes, pH 8.0, 137 mM NaCl, 1 mM MgCl2 and 2.7 mM KCl) for 10 minutes at ambient temperatures in black 96-well plate. Boc-Lys(Ac)-AMC (for HDAC1, 2, 3, 6, and 8 enzymes), which was purchased from Bachem Biosciences Inc., (King of Prussia, Philadelphia) were added into enzyme-compound mixture and incubated at 37° C. For HDAC4, 5, 7 assays, Boc-Lys(TFA)-AMC, which was synthesized in house, was used as substrate and 0.1% BSA was added to the buffer. […] Reaction time was predetermined to ensure that reaction was linear for the incubation time. Reaction was stopped by adding a freshly prepared trypsin (1 mg/ml final concentration) with 1 μM TSA (Biomol) in assay buffer. After 30 minutes, fluorescence was measured using a fluorometer (SPECTRAMAX GeminiXS, Molecular Devices, Sunnylvale, Calif.). The 50% inhibitory concentrations (IC50) for inhibitors were determined by analyzing dose-response inhibition curves.

Compound	IC50
Nc1ccc(-c2ccccc2)cc1NC(=O)c1ccc(N2CCC(N)CC2)cc1 [Compound E]	> 10 µM
CN1CCN(c2ccc(C(=O)Nc3cc(-c4ccccn4)ccc3N)cc2)CC1 [Compound F]	> 10 µM
CN1CCN(c2ccc(C(=O)Nc3cc(-c4ccncc4)ccc3N)cc2)CC1 [Compound G]	> 10 µM
CC(C)N1CCN(c2ccc(C(=O)Nc3cc(-c4ccncc4)ccc3N)cc2)CC1 [Compound H]	> 10 µM

The next lines start with the values.

IC50	Compound
> 10 µM	Nc1ccccc1NC(=O)c1ccc(N2CC[C@H](Nc3cccnc3)C2)cc1 [Compound B]
> 10 µM	Nc1ccc(-c2ccccc2)cc1NC(=O)c1ccc(N2CC[C@H](N)C2)cc1 [Compound D]
